Test results taken from PubChem BioAssay (NCI).
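Five concentrations, 48 hours, 96-well plates. Definition used: TGI = concentration required for complete inhibition of growth.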

Assays:
Test in all cases: NCI-60 cell line screen, 48 h
[1] = tested on: RPMI-8226 leukemia
[2] = tested on: HL-60(TB) leukemia
[3] = tested on: HCC-2998 colon
[4] = tested on: DU-145 prostate
[5] = tested on: HCT-15 colon
[6] = tested on: OVCAR-5 ovarian
[7] = tested on: SNB-19 CNS
[8] = tested on: NCI-H23 lung
[9] = tested on: SF-295 CNS
[10] = tested on: KM12 colon
[11] = tested on: HOP-92 NSCLC
[12] = tested on: HCT-116 colon
[13] = tested on: UO-31 renal
[14] = tested on: SN12C renal
[15] = tested on: ACHN renal
[16] = tested on: EKVX NSCLC
[17] = tested on: OVCAR-8 ovarian
[18] = tested on: UACC-257 melanoma
[19] = tested on: PC-3 prostate
[20] = tested on: TK-10 renal
[21] = tested on: A549 NSCLC
[22] = tested on: OVCAR-3 ovarian
[23] = tested on: MALME-3M melanoma
[24] = tested on: SK-MEL-28 melanoma
[25] = tested on: SF-268 CNS
[26] = tested on: SR leukemia
[27] = tested on: SF-539 CNS
[28] = tested on: MCF7 breast
[29] = tested on: 786-0 renal
[30] = tested on: DLD-1 colon
[31] = tested on: K-562 leukemia
[32] = tested on: U251 CNS
[33] = tested on: SNB-75 CNS
[34] = tested on: KM20L2 colon
[35] = tested on: COLO 205 colon
[36] = tested on: NCI/ADR-RES ovarian
[37] = tested on: IGROV1 ovarian
[38] = tested on: UACC-62 melanoma
[39] = tested on: NCI-H522 lung
[40] = tested on: DMS 273 small cell lung
[41] = tested on: CCRF-CEM leukemia
[42] = tested on: HOP-18 NSCLC
[43] = tested on: MDA-MB-435
[44] = tested on: LOX IMVI melanoma
[45] = tested on: A498 renal
[46] = tested on: RXF 393 renal
[47] = tested on: SK-MEL-5 melanoma
[48] = tested on: MDA-MB-231 breast
[49] = tested on: M14 melanoma
[50] = tested on: NCI-H226 lung
[51] = tested on: MDA-N
[52] = tested on: CAKI-1 renal
[53] = tested on: DMS 114 small cell lung
[54] = tested on: OVCAR-4 ovarian
[55] = tested on: HOP-62 NSCLC
[56] = tested on: MOLT-4 leukemia
[57] = tested on: T-47D breast
[58] = tested on: HS 578T breast
[59] = tested on: LXFL 529 NSCLC
[60] = tested on: SK-OV-3 ovarian
[61] = tested on: SK-MEL-2 melanoma
[62] = tested on: HT29 colon
[63] = tested on: SW-620 colon
[64] = tested on: NCI-H460 lung
[65] = tested on: SNB-78 CNS
[66] = tested on: M19-MEL melanoma
[67] = tested on: XF 498 CNS

SMILES: N#CC1(C#N)C2(c3ccccc3)OC(c3ccccc3)(c3cc4ccccc4cc32)C1(C#N)C#N
- TGI [1]: 5.34 µM
- TGI [2]: 7.05 µM
- TGI [3]: 33.8 µM
- TGI [4]: 28.5 µM
- TGI [5]: 26.7 µM
- TGI [6]: 29.3 µM
- TGI [7]: 32.2 µM
- TGI [8]: 16.6 µM
- TGI [9]: 29.9 µM
- TGI [10]: 23.7 µM
- TGI [11]: 7.05 µM
- TGI [12]: 20 µM
- TGI [13]: 26.5 µM
- TGI [14]: 36.2 µM
- TGI [15]: 28.5 µM
- TGI [16]: 32.1 µM
- TGI [17]: 26.8 µM
- TGI [18]: > 54200 nM
- TGI [19]: 32.9 µM
- TGI [20]: 41 µM
- TGI [21]: 33.9 µM
- TGI [22]: 28.5 µM
- TGI [23]: 37.9 µM
- TGI [24]: 26.1 µM
- TGI [25]: 39.5 µM
- TGI [26]: 53.8 µM
- TGI [27]: 29.6 µM
- TGI [28]: 27.8 µM
- TGI [29]: 21.3 µM
- TGI [30]: 22.3 µM
- TGI [31]: 8.18 µM
- TGI [32]: 35.9 µM
- TGI [33]: 30.1 µM
- TGI [34]: 26.4 µM
- TGI [35]: 18.1 µM
- TGI [36]: 43.8 µM
- TGI [37]: 31.2 µM
- TGI [38]: 37 µM
- TGI [39]: 8.43 µM
- TGI [40]: 32 µM
- TGI [41]: 3.29 µM
- TGI [42]: 17.8 µM
- TGI [43]: 31.7 µM
- TGI [44]: 11.1 µM
- TGI [45]: 35.1 µM
- TGI [46]: 13.8 µM
- TGI [47]: 27.8 µM
- TGI [48]: 31.9 µM
- TGI [49]: 31.6 µM
- TGI [50]: 37.2 µM
- TGI [51]: 34.4 µM
- TGI [52]: 24.1 µM
- TGI [53]: 22.2 µM
- TGI [54]: 27.2 µM
- TGI [55]: 36.4 µM
- TGI [56]: 4.88 µM
- TGI [57]: 46.5 µM
- TGI [58]: 72.2 µM
- TGI [59]: 3.14 µM
- TGI [60]: 37.4 µM
- TGI [61]: 37.9 µM
- TGI [62]: 29.3 µM
- TGI [63]: 9.72 µM
- TGI [64]: 41.7 µM

SMILES: COC1=C(N)C(=O)c2nc(C)ccc2C1=O
- TGI [1]: > 40.8 µM
- TGI [2]: > 26.9 µM
- TGI [3]: 14.5 µM
- TGI [5]: 3.49 µM
- TGI [6]: 3.43 µM
- TGI [7]: 3.83 µM
- TGI [8]: 2.95 µM
- TGI [9]: 3.18 µM
- TGI [10]: 3.68 µM
- TGI [11]: 22.1 µM
- TGI [12]: 3.99 µM
- TGI [13]: 4 µM
- TGI [14]: 3.27 µM
- TGI [15]: 3.27 µM
- TGI [16]: 6.85 µM
- TGI [65]: 14.1 µM
- TGI [17]: 12.4 µM
- TGI [66]: 715 nM
- TGI [18]: 2780 nM
- TGI [20]: 16.4 µM
- TGI [21]: 4.57 µM
- TGI [22]: 3.65 µM
- TGI [23]: 3.18 µM
- TGI [24]: 3.27 µM
- TGI [25]: 4.17 µM
- TGI [67]: 2840 nM
- TGI [26]: > 24 µM
- TGI [27]: 3.35 µM
- TGI [29]: 3.94 µM
- TGI [30]: 5.31 µM
- TGI [31]: > 22.5 µM
- TGI [32]: 5.69 µM
- TGI [33]: 3.74 µM
- TGI [34]: 5.07 µM
- TGI [35]: 3.23 µM
- TGI [37]: 23.3 µM
- TGI [38]: 3.2 µM
- TGI [39]: 3.21 µM
- TGI [40]: 3.84 µM
- TGI [41]: > 87.7 µM
- TGI [42]: 3.53 µM
- TGI [44]: 2.49 µM
- TGI [45]: 3.57 µM
- TGI [46]: 3.08 µM
- TGI [47]: 3.09 µM
- TGI [49]: 3.33 µM
- TGI [50]: 2.33 µM
- TGI [52]: 22.4 µM
- TGI [53]: 3.53 µM
- TGI [54]: 3.66 µM
- TGI [55]: 2.94 µM
- TGI [56]: > 52.9 µM
- TGI [59]: 6.21 µM
- TGI [60]: 38.4 µM
- TGI [61]: 3.28 µM
- TGI [62]: 3.74 µM
- TGI [63]: 3.36 µM
- TGI [64]: 4.11 µM
